Experimental data: the NIST ThermoML archive (doi:10.1016/j.jct.2018.01.024)

Assay: mn = molality of the nth substance listed, in mol/kg
Conditions: Liquid

NC(N)=O [urea] + O
mass density [kg/m3]
Conditions	288.15 K	298.15 K	308.15 K	323.15 K	333.15 K
101 kPa, Vibrating tube method, m1 = 0.093	–	998.52	995.45	989.4	984.53
101 kPa, Vibrating tube method, m1 = 0.1063	–	998.73	995.65	989.59	984.72
101 kPa, Vibrating tube method, m1 = 0.141	–	999.27	996.18	990.1	985.22
101 kPa, Vibrating tube method, m1 = 0.152	–	999.45	996.35	990.26	985.38
101 kPa, Vibrating tube method, m1 = 0.1809	–	999.9	996.79	990.68	985.79
101 kPa, Vibrating tube method, m1 = 0.2423	–	1000.86	997.71	991.57	986.66
101 kPa, Vibrating tube method, m1 = 0.4362	–	1003.84	1000.59	994.33	989.38
101 kPa, Vibrating tube method, m1 = 0.5644	–	1005.78	1002.47	996.13	991.15
101 kPa, Vibrating tube method, m1 = 1.008	–	1012.3	1008.78	1002.19	997.11
101 kPa, Vibrating tube method, m1 = 1.609	–	1020.67	1016.91	1010.03	1004.81
101 kPa, Vibrating tube method, m1 = 2.505	–	1032.29	1028.21	1020.95	1015.53
101 kPa, Vibrating tube method, m1 = 3.376	–	1042.7	1038.34	1030.77	1025.17
101 kPa, Vibrating tube method, m1 = 4.33	–	1053.2	1048.55	1040.72	1034.98
101 kPa, Vibrating tube method, m1 = 5.39	–	1063.84	1058.96	1050.87	1044.98
101 kPa, Vibrating tube method, m1 = 8	–	1086.63	1081.22	1072.6	1066.38
101 kPa, Vibrating tube method, m1 = 9.9	–	1100.56	1094.97	1086.08	1079.64
101 kPa, Vibrating tube method, m1 = 12.8	–	1118.82	1112.9	1103.59	1096.9
10000 kPa, Constant-volume piezometry, m1 = 0.1809	–	1004.31	1001.1	994.94	–
10000 kPa, Constant-volume piezometry, m1 = 0.4362	–	1008.22	1004.89	998.57	–
10000 kPa, Constant-volume piezometry, m1 = 0.5644	–	1010.14	1006.76	1000.36	–
10000 kPa, Constant-volume piezometry, m1 = 1.609	–	1024.95	1021.13	1014.19	–
10000 kPa, Constant-volume piezometry, m1 = 2.505	–	1036.5	1032.37	1025.05	–
10000 kPa, Constant-volume piezometry, m1 = 3.376	–	1046.86	1042.44	1034.82	–
10000 kPa, Constant-volume piezometry, m1 = 5.39	–	1067.88	1062.95	1054.83	–
10000 kPa, Constant-volume piezometry, m1 = 8	–	1090.56	1085.13	1076.49	–
10000 kPa, Constant-volume piezometry, m1 = 10.99	–	1111.68	1105.95	1096.87	–
10000 kPa, Constant-volume piezometry, m1 = 12.8	–	1122.59	1116.69	1107.38	–
25000 kPa, Constant-volume piezometry, m1 = 0.1809	–	1010.8	1007.46	1001.22	–
25000 kPa, Constant-volume piezometry, m1 = 0.4362	–	1014.67	1011.22	1004.83	–
25000 kPa, Constant-volume piezometry, m1 = 0.5644	–	1016.58	1013.08	1006.62	–
25000 kPa, Constant-volume piezometry, m1 = 1.609	–	1031.23	1027.31	1020.35	–
25000 kPa, Constant-volume piezometry, m1 = 2.505	–	1042.68	1038.45	1031.14	–
25000 kPa, Constant-volume piezometry, m1 = 3.376	–	1052.93	1048.43	1040.83	–
25000 kPa, Constant-volume piezometry, m1 = 5.39	–	1073.78	1068.78	1060.7	–
25000 kPa, Constant-volume piezometry, m1 = 8	–	1096.33	1090.83	1082.18	–
25000 kPa, Constant-volume piezometry, m1 = 10.99	–	1117.29	1111.57	1102.45	–
25000 kPa, Constant-volume piezometry, m1 = 12.8	–	1128.17	1122.24	1112.95	–
50000 kPa, Constant-volume piezometry, m1 = 0.1809	–	1021.19	1017.66	1011.26	–
50000 kPa, Constant-volume piezometry, m1 = 0.4362	–	1025	1021.35	1014.82	–
50000 kPa, Constant-volume piezometry, m1 = 0.5644	–	1026.87	1023.19	1016.57	–
50000 kPa, Constant-volume piezometry, m1 = 1.609	–	1041.28	1037.21	1030.14	–
50000 kPa, Constant-volume piezometry, m1 = 2.505	–	1052.51	1048.14	1040.78	–
50000 kPa, Constant-volume piezometry, m1 = 3.376	–	1062.57	1057.95	1050.36	–
50000 kPa, Constant-volume piezometry, m1 = 5.39	–	1083.08	1078.02	1069.99	–
50000 kPa, Constant-volume piezometry, m1 = 8	–	1105.37	1099.83	1091.23	–
50000 kPa, Constant-volume piezometry, m1 = 10.99	–	1126.18	1120.31	1111.32	–
50000 kPa, Constant-volume piezometry, m1 = 12.8	–	1136.9	1130.92	1121.73	–
75000 kPa, Constant-volume piezometry, m1 = 0.1809	–	1031.09	1027.35	1020.8	–
75000 kPa, Constant-volume piezometry, m1 = 0.4362	–	1034.82	1030.99	1024.31	–
75000 kPa, Constant-volume piezometry, m1 = 0.5644	–	1036.66	1032.8	1026.04	–
75000 kPa, Constant-volume piezometry, m1 = 1.609	–	1050.81	1046.61	1039.38	–
75000 kPa, Constant-volume piezometry, m1 = 2.505	–	1061.84	1057.37	1049.87	–
75000 kPa, Constant-volume piezometry, m1 = 3.376	–	1071.73	1067.04	1059.32	–
75000 kPa, Constant-volume piezometry, m1 = 5.39	–	1091.95	1086.84	1078.73	–
75000 kPa, Constant-volume piezometry, m1 = 8	–	1113.92	1108.4	1099.84	–
75000 kPa, Constant-volume piezometry, m1 = 10.99	–	1134.57	1128.64	1119.74	–
75000 kPa, Constant-volume piezometry, m1 = 12.8	–	1145.19	1139.16	1130.01	–
100000 kPa, Constant-volume piezometry, m1 = 0.1809	–	1040.52	1036.61	1029.92	–
100000 kPa, Constant-volume piezometry, m1 = 0.4362	–	1044.19	1040.2	1033.37	–
100000 kPa, Constant-volume piezometry, m1 = 0.5644	1049.66	1046	1041.98	1035.08	–
100000 kPa, Constant-volume piezometry, m1 = 1.609	1063.93	1059.92	1055.64	1048.25	–
100000 kPa, Constant-volume piezometry, m1 = 2.505	1075.04	1070.84	1066.32	1058.62	–
100000 kPa, Constant-volume piezometry, m1 = 3.376	1085.01	1080.63	1075.91	1067.97	–
100000 kPa, Constant-volume piezometry, m1 = 5.39	1105.48	1100.6	1095.48	1087.2	–
100000 kPa, Constant-volume piezometry, m1 = 8	1127.8	1122.4	1116.79	1108.07	–
100000 kPa, Constant-volume piezometry, m1 = 10.99	1148.53	1142.75	1136.92	1127.82	–
100000 kPa, Constant-volume piezometry, m1 = 12.8	1159.2	1153.24	1147.3	1138.03	–
